The target of one assay is T1, FOXO4 (Homo sapiens, UniProt P98177).
T1 construct: purchased OriGene Technologies TP760655
Briefly: Bio-layer Interferometry, FOXO4. It counts as binding. As to the method: Bio-layer Interferometry (BLI) measurements were performed on a ForteBio Octet RED384 instrument (Molecular Devices) using ForteBio Data Acquisition software 9.0 and ForteBio biosensors (Molecular Devices) according to the manufacturer's instructions. Kinetic assays were carried out at 30°C using settings of Standard Kinetics Acquisition rate (5.0 Hz, averaging by 20) at a sample plate shake speed of 1,000 rpm. Streptavidin sensors (SA) (ForteBio) equilibrated in PBS were mock loaded (no ligand reference sensor) or loaded with 50 nM of N- terminal biotinylated ES2 peptide (New England Peptide, Inc.) with an approximate response of 1 nm. Ligand loaded SA sensors equilibrated in Kinetics buffer (ForteBio) to establish a baseline, were dipped into wells containing 2-fold dilutions of TP53 (Millipore Sigma Aldrich; Cat# 23-034), FOXO4 (OriGene Technologies; Cat# TP760655) or GFP analytes in kinetics buffer, or buffer alone (reference sample). Increasing concentrations of analytes ranging from 6.2 - 200 nM were allowed to associate for 240 secs, followed by 600 sec dissociation step where the TP53/FOXO4-bound sensors were washed with kinetics buffer. Binding curves were analysed using ForteBio Data Analysis HT 10.0 evaluation software. To control for background signal and non-specific binding, raw experimental data were processed by subtracting reference biosensor and reference sample (no ligand). Processed data from at least six different concentrations of analyte binding were globally fit to a 1:1 Langmuir binding model to calculate the association rate constant ka, the dissociation rate constant kd to achieve R^2 > 0.90. Equilibrium dissociation constants KD which defines the strength of the interaction or affinity was calculated as the kinetic dissociation rate constant divided by the kinetic association rate constant.

In assay [1] the test system is senescent TP53 knockout MCF10a cells. Briefly: ES2 viability in TP53 knockout vs wildtype MCF10a cells. It counts as cell-based, human. Particulars: range of ES2 treatments. As to the method:
A375-Luc/iRFP cells were purchased from Creative Biogene (CSC-RR0254). B16-F10 cells were purchased (ATCC Cat# CRL-6475, RRID:CVCL_0159). MCF7 cells were purchased (ATCC Cat# HTB-22, RRID:CVCL_0031). IMR90 cells were purchased (ATCC Cat# CCL-186, RRID:CVCL_0347). A375-Luc/iRFP, B16-F10, IMR90, and MCF7 cells were cultured in Dulbecco's Modified Eagle Medium (DMEM), 10% fetal bovine serum (FBS) and 1X penicillin-streptomycin (PS). HCT-116 cells were purchased (ATCC Cat# CCL-247, RRID:CVCL_0291). DLD-1 cells were purchased (ATCC Cat# CCL-221, RRID:CVCL_0248). SW480 cells were purchased (ATCC Cat# CCL-228, RRID:CVCL_0546). HCT-116, DLD-1, and SW480 cells were cultured in Roswell Park Memorial Institute 1640 (RPMI 1640), 10% FBS, and 1X PS. […]
Cell lines were treated with chemotherapy, doxorubicin (Sigma, Cat. No. 2252) to induce senescence (200 nM for HCT116, 100 nM for B16-F10 and MCF7, 50 nM for SW480 and DLD-1, 40 nM for A375-Luc/iRFP and MCF10a). […] Cellular proliferation was quantified using the Promega CellTiter 96™ AQueous One Solution Cell Proliferation Assay (MTS) after 2 hours according to the manufacturer's protocol (Promega, G3581). […]

For another assay, the system named is dividing A375 cells. Put plainly: Orthotopic xenograft of dividing luciferase A375 cells, radiance. It counts as in vivo, mouse. The settings on record: dividing A375 cells injected orthotopically, locally injected twice, imaged one day later; ES2 n=5, saline n=9.

Consider 1 sequence from paper PMC8546421, “Molecular modelling of the FOXO4-TP53 interaction to design senolytic peptides for the elimination of senescent cancer cells” (EBioMedicine, 2021).

Entries after “also recorded” stand apart in the source; their conditions may differ. Read-outs that look alike come from different tables or passages of the source. Where no end group is shown, it is not given here.

T1 sequence (P98177 whole entry): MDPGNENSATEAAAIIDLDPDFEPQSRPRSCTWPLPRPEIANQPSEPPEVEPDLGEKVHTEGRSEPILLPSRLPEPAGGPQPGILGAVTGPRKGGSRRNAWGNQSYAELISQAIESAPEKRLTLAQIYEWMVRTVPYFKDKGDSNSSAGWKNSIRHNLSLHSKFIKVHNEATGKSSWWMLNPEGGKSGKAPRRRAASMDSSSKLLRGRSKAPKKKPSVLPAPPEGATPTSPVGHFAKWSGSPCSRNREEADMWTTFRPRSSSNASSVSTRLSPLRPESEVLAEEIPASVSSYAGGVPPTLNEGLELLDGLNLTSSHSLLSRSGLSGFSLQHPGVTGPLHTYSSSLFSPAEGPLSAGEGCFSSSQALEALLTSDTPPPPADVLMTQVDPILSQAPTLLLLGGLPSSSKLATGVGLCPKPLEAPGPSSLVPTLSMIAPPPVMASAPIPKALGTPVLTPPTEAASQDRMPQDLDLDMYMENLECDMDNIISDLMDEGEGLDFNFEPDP

Regarding “PRKGGRRRRAWGRRRRRRRRRRRRRRAPRKRLTLA [ES2]”, the “affinity for FOXO4 compared to TP53” value at FOXO4 (BLI KD ratio) is “approximately 4 fold”. The kon at FOXO4 (BLI, 1:1 Langmuir binding model, read-out: association rate ka) worked out at 117000 M⁻¹ s⁻¹; at FOXO4 (BLI, biotinylated ES2 immobilized on streptavidin sensors, analyte 6.25-200 nM, 30°C, global 1:1 Langmuir fit, read-out: ka), 120000 M⁻¹ s⁻¹. Also, on FOXO4 (BLI, biotinylated ES2 immobilized on streptavidin sensors, analyte 6.25-200 nM, 30°C, global 1:1 Langmuir fit), the kd was 7.7e-05 ± 7.2e-07 s⁻¹. For the same sequence, binding on FOXO4 (BLI, biotinylated ES2 immobilized on streptavidin sensors, analyte 6.25-200 nM, 30°C, kd/ka) was put at a Kd of 0.66 ± 0.01 nM. Also, in assay [1], the “ES2 mediated cell death in p53−/− vs p53+/+ senescent MCF10a” value is “resistant to ES2 mediated cell death”. Moreover, the “elimination of dividing cancer cells in vivo (radiance)” value in the assay with dividing A375 cells is “no difference in gain of radiance; also recorded: ineffective at eliminating dividing cancer cells”.
